Laboratory results taken from BigSolDB 2.1.

In the case of NC(CO)(CO)CO, the solubility (mole fraction) (in n-propanol, 293.2 K) is reported as 0.0038, the solubility (mole fraction) (in n-propanol, 298.2 K) is reported as 0.005 and the solubility (mole fraction) (in n-propanol, 303.2 K) is reported as 0.0063. The solubility (mole fraction) (in n-propanol, 308.2 K) was 0.0072, the solubility (mole fraction) (in n-propanol, 313.2 K) was 0.0088 and the solubility (mole fraction) (in water, 293.2 K) was 0.0831. It also gave a solubility (mole fraction) (in water, 298.2 K) of 0.092, a solubility (mole fraction) (in water, 303.2 K) of 0.101 and a solubility (mole fraction) (in water, 308.2 K) of 0.11. The solubility (mole fraction) (in water, 313.2 K) was 0.123.
